Test results from US20250034216A1, “STEREOSELECTIVE COVALENT LIGANDS FOR ONCOGENIC AND IMMUNOLOGICAL PROTEINS” (The Scripps Research Institute, priority 2021, published 2025).

How the values were obtained:
NUDT16L1_C88 = target: T1, NUDT16L1_C88 (Homo sapiens, UniProt Q9BRJ7); test: IA-DTB cysteine engagement; assay type: binding; conditions: 22Rv1 cells, relative to DMSO; for % engagement NUDT16L1_88: 5 μM probe, 1 h (FIG. 5B); for % engagement NUDT16L1_C88: 20 μM probe, 1 h
T1 construct: endogenous in cells; host or cells: 22Rv1
How it was run: (§1)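 First, cells are exposed to electrophilic probes in situ. Next, lysates are labeled with IA-DTB (1 h, ambient temperature), reduced, alkylated and trypsin-digested. Then, IA-DTB peptides are enriched on streptavidin, TMT-labeled and analyzed, with ratios taken against DMSO channels.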

ZFAT_C392 = target: T2, ZFAT_C392 (Homo sapiens, UniProt Q9P243); test: IA-DTB cysteine engagement; assay type: binding; conditions: 22Rv1 cells, 20 μM probe, 1 h, relative to DMSO
T2 construct: endogenous in cells; host or cells: 22Rv1
T2 sequence (Q9P243 1-1243): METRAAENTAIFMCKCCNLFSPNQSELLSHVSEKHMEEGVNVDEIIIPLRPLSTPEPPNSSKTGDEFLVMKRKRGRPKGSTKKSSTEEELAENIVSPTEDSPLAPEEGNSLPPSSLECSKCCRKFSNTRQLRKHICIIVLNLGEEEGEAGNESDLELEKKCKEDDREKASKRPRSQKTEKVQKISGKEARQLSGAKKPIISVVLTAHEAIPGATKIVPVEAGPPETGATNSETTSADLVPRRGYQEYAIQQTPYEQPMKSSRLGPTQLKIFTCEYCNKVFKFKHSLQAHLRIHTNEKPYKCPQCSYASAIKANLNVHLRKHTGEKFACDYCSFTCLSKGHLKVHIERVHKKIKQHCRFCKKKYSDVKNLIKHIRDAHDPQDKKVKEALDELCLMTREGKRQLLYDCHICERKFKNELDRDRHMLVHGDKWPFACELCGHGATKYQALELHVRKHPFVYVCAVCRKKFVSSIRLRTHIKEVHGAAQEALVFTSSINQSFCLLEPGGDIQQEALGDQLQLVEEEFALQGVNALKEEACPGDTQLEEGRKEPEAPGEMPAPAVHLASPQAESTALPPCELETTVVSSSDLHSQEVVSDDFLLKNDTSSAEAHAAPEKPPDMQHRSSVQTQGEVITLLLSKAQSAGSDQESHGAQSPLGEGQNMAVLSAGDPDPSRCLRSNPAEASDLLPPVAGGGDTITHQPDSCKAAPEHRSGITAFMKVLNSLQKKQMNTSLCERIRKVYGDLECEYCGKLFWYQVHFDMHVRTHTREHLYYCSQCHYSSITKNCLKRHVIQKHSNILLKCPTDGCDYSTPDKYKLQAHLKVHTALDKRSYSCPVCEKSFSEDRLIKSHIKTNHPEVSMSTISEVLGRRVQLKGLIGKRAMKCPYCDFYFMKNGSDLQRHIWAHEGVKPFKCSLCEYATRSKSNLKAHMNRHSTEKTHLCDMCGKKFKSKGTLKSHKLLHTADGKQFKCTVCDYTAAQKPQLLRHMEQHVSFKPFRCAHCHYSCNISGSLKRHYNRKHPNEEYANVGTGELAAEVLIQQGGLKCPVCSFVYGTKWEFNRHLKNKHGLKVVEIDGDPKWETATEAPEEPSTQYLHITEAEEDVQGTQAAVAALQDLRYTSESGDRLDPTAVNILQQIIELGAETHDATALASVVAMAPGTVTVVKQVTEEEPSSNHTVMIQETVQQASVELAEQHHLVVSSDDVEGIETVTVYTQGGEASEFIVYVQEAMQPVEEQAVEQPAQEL
How it was run: as §1

T1 sequence (Q9BRJ7 whole entry): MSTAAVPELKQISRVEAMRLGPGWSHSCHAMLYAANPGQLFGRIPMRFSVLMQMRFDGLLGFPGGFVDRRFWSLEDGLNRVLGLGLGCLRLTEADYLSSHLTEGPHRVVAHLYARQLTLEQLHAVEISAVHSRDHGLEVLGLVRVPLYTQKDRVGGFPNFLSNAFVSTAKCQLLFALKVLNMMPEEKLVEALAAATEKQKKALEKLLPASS

Structure (SMILES) | % engagement NUDT16L1_88 (NUDT16L1_C88) [%] | % engagement NUDT16L1_C88 (NUDT16L1_C88) [%] | % engagement ZFAT_C392 (ZFAT_C392) [%]
CC#CC(=O)N1C[C@H](c2ccc(Br)cc2)[C@@H]1C(=O)Nc1cccc2cccnc12 [MY-45B, (2R,3S)-3-(4-bromophenyl)-1-(but-2-ynoyl)-N-(quinolin-8-yl)azetidine-2-carboxamide] | 9.38 | – | –
C=CC(=O)N1C[C@H](c2ccc(Br)cc2)[C@@H]1C(=O)Nc1cccc2cccnc12 [MY-1B, (2R,3S)-1-acryloyl-3-(4-bromophenyl)-N-(quinolin-8-yl)azetidine-2-carboxamide] | 67.63 | 88.5 | 39
C=CC(=O)N1C[C@H](c2ccc(Br)cc2)[C@H]1C(=O)Nc1cccc2cccnc12 [MY-3B, (2S,3S)-1-acryloyl-3-(4-bromophenyl)-N-(quinolin-8-yl)azetidine-2-carboxamide] | – | 87.5 | 68.5
C=CC(=O)N1C[C@H](c2ccc(Br)cc2)[C@H]1C(=O)Nc1cccc2cccnc12 [MY-3A, (2S,3S)-1-acryloyl-3-(4-bromophenyl)-N-(quinolin-8-yl)azetidine-2-carboxamide] | – | 14.5 | 17.5
C=CC(=O)N1C[C@@H](c2ccc(Br)cc2)[C@H]1C(=O)Nc1cccc2cccnc12 [MY-1A, (2S,3R)-1-acryloyl-3-(4-bromophenyl)-N-(quinolin-8-yl)azetidine-2-carboxamide] | – | 33.25 | 32.5
